Experimental data: US11046659B2, “1,2,3-triazole derivative and insecticide and acaricide containing said derivative as active ingredient” (HOKKO CHEMICAL INDUSTRY CO., LTD., priority 2015, dated 2021)

System: Tetranychus urticae
Test: Tetranychus urticae control test
Type: in vivo
Conditions: diluted emulsifiable concentrate 500 ppm sprayed on bean seedlings; female adults; eight days after the treatment; 25° C.
Procedure: Test Example-4: Tetranychus urticae Control Test
Ten female adults of Tetranychus urticae were released on each of bean seedlings grown in a plastic cup. One day after the release, the bean seedlings were placed on a turntable, and 30 mL of a diluted emulsifiable concentrate (500 ppm) prepared according to Formulation Example 3 was uniformly sprayed thereon by means of a spray gun. After the treatment, the seedlings were placed in a constant temperature chamber at 25° C. (with lighting for 16 hours). Eight days after the treatment, the number of surviving parasitic insects was investigated, and the preventive value (%) was calculated according to the following calculating formula (b). Test was conducted in duplicate. Preventive value (%)={1−(number of parasitic insects on investigation day in treatment plot/number of parasitic insects on investigation day in non-treatment plot)}×100 Formula (b): […]

Compound: CCS(=O)(=O)c1cc(C(F)(F)F)cnc1-n1cc(-c2ccc(C(F)(F)F)cc2)nn1 [1-834]
- preventive value: ≥ 80%
